Data from the supplement of paper PMC10331698.
± gives the standard deviation of the averaged measurements.

Tests used:
Test in all cases: level (log10 ratio to DMSO vehicle control); higher = higher biomarker level / cell amount than vehicle control
[1] = compound: FC(F)(F)C(F)(F)C(F)(F)C(F)(F)CCI [1H,1H,2H,2H-Perfluorohexyl iodide]; details: in DMSO
Protocol: (§1)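 BioMAP Diversity Plus panel of 12 human primary cell co-culture systems (3C, 4H, LPS, SAg, BT, BF4T, BE3C, CASM3C, HDF3CGF, KF3CT, MyoF, Mphg). Compounds were added 1 h before stimulation and left for 24 h (MyoF 48 h; BT 72 h for soluble read-outs or 6 d for IgG). Biomarkers were read by ELISA, cytotoxicity by SRB, PBMC viability and proliferation by Alamar Blue. Each well value was divided by the mean of 8 DMSO control wells on the same plate and log10 transformed; duplicate blinded samples were tested at 4 concentrations.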

[2] = compound: FC(F)(F)COC(OCC(F)(F)F)OCC(F)(F)F [tris(Trifluoroethoxy)methane]; details: in DMSO
Protocol: as §1

[3] = compound: Cc1ccc(S(=O)(=O)OCC(F)(F)C(F)(F)C(F)(F)C(F)(F)C(F)(F)C(F)F)cc1 [1H,1H,7H-Perfluoroheptyl 4-methylbenzenesulfonate]; details: in DMSO
Protocol: as §1

Perfluorooctanoic acid = compound: O=C(O)C(F)(F)C(F)(F)C(F)(F)C(F)(F)C(F)(F)C(F)(F)C(F)(F)F [Perfluorooctanoic acid]; details: in DMSO
Protocol: as §1

[4] = compound: C=C(C)C(=O)OCC(F)(F)C(F)(F)C(F)(F)F [2,2,3,3,4,4,4-Heptafluorobutyl methacrylate]; details: in DMSO
Protocol: as §1

[5] = compound: C=CC(=O)OCC(F)(F)C(F)(F)C(F)(F)C(F)(F)COC(=O)C=C [1H,1H,6H,6H-Perfluorohexane-1,6-diol diacrylate]; details: 6700 nM; in DMSO
Protocol: as §1

[6] = compound: OCCC(F)(F)C(F)(F)C(F)(F)C(F)(F)C(F)(F)C(F)(F)C(F)(F)C(F)(F)F [8:2 Fluorotelomer alcohol]; details: 6700 nM; in DMSO
Protocol: as §1

[7] = compound: C=CC(=O)OCC(F)(F)C(F)(F)C(F)(F)C(F)(F)C(F)(F)C(F)(F)C(F)(F)C(F)F [1H,1H,9H-Perfluorononyl acrylate]; details: in DMSO
Protocol: as §1

Row | Test System | level (log10) ([1]; 6700 nM) | level (log10) ([1]; 20000 nM) | level (log10) ([1]; 60000 nM) | level (log10) ([2]; 6700 nM) | level (log10) ([2]; 20000 nM) | level (log10) ([2]; 60000 nM) | level (log10) ([3]; 6700 nM) | level (log10) ([3]; 20000 nM) | level (log10) ([3]; 60000 nM) | level (log10) (Perfluorooctanoic acid; 6700 nM) | level (log10) (Perfluorooctanoic acid; 20000 nM) | level (log10) (Perfluorooctanoic acid; 60000 nM) | level (log10) ([4]; 6700 nM) | level (log10) ([4]; 20000 nM) | level (log10) ([4]; 60000 nM) | level (log10) [5] | level (log10) [6] | level (log10) ([7]; 6700 nM) | level (log10) ([7]; 20000 nM) | level (log10) ([7]; 60000 nM)
1 | BE3C:EGFR | 0.011 ± 0.047 | -0.0005 ± 0.046 | -0.0275 ± 0.063 | 0.022 ± 0.041 | 0.0095 ± 0.033 | 0.005 ± 0.021 | -0.0255 ± 0.0035 | -0.03 ± 0.035 | -0.027 ± 0.0028 | -0.0165 ± 0.012 | -0.025 ± 0.011 | -0.018 ± 0.037 | 0.0195 ± 0.03 | 0.0155 ± 0.029 | 0.012 ± 0.017 | -0.034 ± 0.0099 | -0.019 ± 0.0014 | -0.0025 ± 0.005 | 0.003 ± 0.0071 | -0.014 ± 0.023
2 | 3C:CXCL9/MIG | 0.0045 ± 0.00071 | -0.0085 ± 0.005 | 0.007 ± 0.0057 | -0.01 ± 0.018 | -0.008 ± 0.0057 | -0.0115 ± 0.0035 | 0.005 ± 0.011 | -0.008 ± 0.0014 | -0.01 ± 0.0042 | 0.001 ± 0.021 | 0.0095 ± 0.023 | 0.0265 ± 0.022 | -0.0035 ± 0.005 | 0.002 | 0.0095 ± 0.021 | 0.002 ± 0.0042 | -0.015 ± 0.0071 | 0.009 ± 0.0028 | 0.0005 ± 0.011 | -0.0055 ± 0.005
3 | BF4T:MMP-1 | 0.007 ± 0.024 | 0.0105 ± 0.029 | 0.015 ± 0.051 | 0.006 ± 0.02 | -0.007 ± 0.017 | 0.0015 ± 0.00071 | 0.0105 ± 0.046 | -0.018 ± 0.038 | 0.013 ± 0.037 | -0.002 ± 0.0057 | -0.0005 ± 0.0078 | 0.0265 ± 0.018 | 0.009 ± 0.018 | -0.001 ± 0.013 | 0.009 ± 0.0057 | 0.0365 ± 0.018 | 0.0035 ± 0.016 | -0.0185 ± 0.0021 | -0.0005 ± 0.005 | 0.001 ± 0.0057
4 | LPS:sPGE2 | -0.004 ± 0.014 | -0.002 ± 0.017 | 0.0245 ± 0.03 | -0.0105 ± 0.022 | -0.0085 ± 0.0035 | 0.0185 ± 0.013 | -0.0185 ± 0.03 | -0.023 ± 0.024 | 0.003 ± 0.058 | 0.0065 ± 0.016 | -0.067 ± 0.02 | -0.159 ± 0.064 | 0.05 ± 0.042 | -0.009 ± 0.024 | 0.076 ± 0.014 | -0.0195 ± 0.0064 | -0.11 ± 0.033 | -0.046 ± 0.0071 | -0.123 ± 0.053 | -0.15 ± 0.11
5 | BF4T:MMP-3 | 0.018 ± 0.04 | 0.015 ± 0.047 | 0.049 ± 0.078 | 0.014 ± 0.044 | 0.004 ± 0.041 | 0.006 ± 0.042 | -0.006 ± 0.0014 | -0.031 ± 0.0014 | -0.018 ± 0.0085 | -0.007 ± 0.018 | 0.007 ± 0.0028 | 0.023 ± 0.021 | -0.009 ± 0.03 | -0.011 ± 0.0085 | 0.006 ± 0.0085 | 0.085 ± 0.038 | -0.001 ± 0.0014 | 0.013 ± 0.013 | -0.003 ± 0.045 | 0.021 ± 0.0085
6 | LPS:IL-1alpha | -0.0045 ± 0.032 | -0.034 ± 0.047 | 0.051 ± 0.044 | -0.019 ± 0.014 | -0.015 ± 0.014 | -0.0095 ± 0.035 | -0.018 ± 0.017 | -0.006 ± 0.0042 | -0.039 ± 0.0085 | 0.0135 ± 0.0035 | -0.0205 ± 0.043 | -0.007 ± 0.017 | -0.04 ± 0.0057 | -0.0105 ± 0.011 | 0.042 ± 0.0014 | -0.0065 ± 0.015 | -0.015 ± 0.013 | 0.04 ± 0.028 | 0.0435 ± 0.03 | 0.0325 ± 0.053
7 | LPS:SRB | 0.019 ± 0.023 | 0.0125 ± 0.035 | 0.007 ± 0.024 | -0.0065 ± 0.0021 | -0.0015 ± 0.011 | -0.0015 ± 0.0078 | 0.006 ± 0.0099 | -0.0075 ± 0.00071 | -0.031 ± 0.0042 | -0.01 ± 0.011 | 0.0085 ± 0.012 | -0.0265 ± 0.0064 | -0.012 ± 0.0014 | -0.0075 ± 0.0021 | 0.002 ± 0.0042 | -0.0065 ± 0.0092 | -0.0125 ± 0.011 | -0.006 ± 0.0028 | 0.003 ± 0.0042 | -0.0055 ± 0.011
8 | SAg:CD38 | 0.009 ± 0.021 | -0.007 ± 0.0071 | -0.005 ± 0.031 | -0.0135 ± 0.015 | -0.011 ± 0.0057 | -0.012 ± 0.02 | 0.005 ± 0.0057 | -0.0075 ± 0.012 | -0.0075 ± 0.012 | -0.008 ± 0.0085 | -0.012 ± 0.023 | -0.0405 ± 0.0064 | -0.0015 ± 0.03 | 0.007 ± 0.048 | 0.013 ± 0.068 | -0.0305 ± 0.0078 | -0.004 | -0.0395 ± 0.035 | -0.0245 ± 0.0035 | -0.031 ± 0.011
9 | 3C:HLA-DR | -0.0005 ± 0.029 | -0.035 ± 0.04 | -0.0305 ± 0.04 | 0.014 ± 0.013 | 0.0065 ± 0.012 | 0.0205 ± 0.0035 | 0.0215 ± 0.016 | 0.0165 ± 0.0021 | 0.0085 ± 0.022 | 0.0035 ± 0.0092 | -0.008 ± 0.028 | 0.0155 ± 0.043 | -0.01 ± 0.013 | -0.0055 ± 0.0078 | 0.001 ± 0.0042 | -0.025 ± 0.011 | -0.0245 ± 0.018 | -0.002 ± 0.0085 | 0.0155 ± 0.0021 | -0.0055 ± 0.005
10 | BT:sIL-17F | -0.0555 ± 0.04 | -0.03 ± 0.021 | -0.0755 ± 0.1 | -0.024 ± 0.031 | -0.0565 ± 0.032 | 0.0095 ± 0.084 | 0.0475 ± 0.13 | -0.037 ± 0.051 | -0.105 ± 0.032 | 0.032 ± 0.04 | 0.0665 ± 0.11 | 0.095 ± 0.035 | -0.0825 ± 0.14 | 0.0525 ± 0.083 | 0.0455 ± 0.033 | -0.816 ± 0.025 | 0.013 ± 0.065 | -0.175 ± 0.05 | -0.483 ± 0.2 | -0.84 ± 0.25
11 | SAg:CD40 | 0.019 ± 0.013 | 0.012 ± 0.0014 | -0.0185 ± 0.018 | 0.0005 ± 0.026 | -0.0185 ± 0.011 | -0.0245 ± 0.0064 | -0.0125 ± 0.0078 | 0.001 ± 0.031 | -0.0135 ± 0.011 | 0.002 ± 0.013 | -0.017 ± 0.014 | -0.0415 ± 0.012 | -0.038 ± 0.02 | -0.032 ± 0.011 | -0.023 ± 0.025 | -0.0895 ± 0.023 | 0 ± 0.0042 | -0.027 ± 0.021 | -0.0725 ± 0.023 | -0.133 ± 0.026
12 | BT:Secreted IgG | -0.012 ± 0.016 | -0.016 ± 0.0071 | -0.002 ± 0.014 | 0.019 ± 0.079 | -0.0135 ± 0.091 | 0.042 ± 0.014 | 0.006 ± 0.018 | -0.019 ± 0.035 | -0.22 ± 0.18 | 0.0095 ± 0.026 | -0.005 ± 0.013 | -0.0165 ± 0.0078 | 0.0145 ± 0.036 | 0.029 ± 0.018 | 0.024 ± 0.03 | -0.489 ± 0.25 | -0.0885 ± 0.088 | -0.011 ± 0.027 | -0.0185 ± 0.039 | -0.412 ± 0.43
13 | BT:sTNF-alpha | -0.016 ± 0.085 | -0.003 ± 0.0028 | -0.036 ± 0.095 | 0.017 ± 0.11 | -0.0365 ± 0.033 | 0.0085 ± 0.043 | 0.102 ± 0.067 | 0.0055 ± 0.084 | 0.084 ± 0.069 | 0.0755 ± 0.044 | 0.097 ± 0.047 | 0.166 ± 0.11 | 0.0155 ± 0.043 | 0.023 ± 0.058 | 0.0675 ± 0.0092 | -0.698 ± 0.042 | 0.093 ± 0.034 | -0.111 ± 0.039 | -0.281 ± 0.065 | -0.827 ± 0.71
14 | 4H:CCL2/MCP-1 | 0.0175 ± 0.021 | -0.008 ± 0.016 | 0.0195 ± 0.042 | -0.017 ± 0.017 | -0.017 ± 0.018 | 0.031 ± 0.054 | -0.0455 ± 0.023 | -0.098 ± 0.0071 | -0.178 ± 0.05 | -0.028 ± 0.0071 | -0.0395 ± 0.013 | -0.0555 ± 0.054 | 0.0125 ± 0.012 | -0.007 ± 0.0099 | 0.0335 ± 0.047 | -0.0235 ± 0.019 | -0.012 ± 0.014 | -0.0255 ± 0.0064 | -0.0105 ± 0.028 | 0.0245 ± 0.019
